In one assay the target is T1, BRG-1 (Homo sapiens, UniProt P51532).
T1 construct: made in house; host or cells: High Five insect cells
Put plainly: ATPase catalytic activity of BRG-1, ADP-Glo in vitro biochemical assay. Conditions: ATPase catalytic activity, 30 nM BRG-1, 400 μM ATP, read-out: BRG1 IP50. On the technique in general: ADP-Glo turns the ADP formed in a reaction into a luminescent signal.

For another assay, the target named is T2, BRM (Homo sapiens, UniProt P51531).
T2 construct: made in house; host or cells: High Five insect cells
Kind of assay: ATPase catalytic activity of BRM, ADP-Glo in vitro biochemical assay. The settings on record: ATPase catalytic activity, 30 nM BRM, 400 μM ATP, read-out: BRM IP50.

pIC50: −log10 of the molar value.

T1 sequence (P51532 whole entry): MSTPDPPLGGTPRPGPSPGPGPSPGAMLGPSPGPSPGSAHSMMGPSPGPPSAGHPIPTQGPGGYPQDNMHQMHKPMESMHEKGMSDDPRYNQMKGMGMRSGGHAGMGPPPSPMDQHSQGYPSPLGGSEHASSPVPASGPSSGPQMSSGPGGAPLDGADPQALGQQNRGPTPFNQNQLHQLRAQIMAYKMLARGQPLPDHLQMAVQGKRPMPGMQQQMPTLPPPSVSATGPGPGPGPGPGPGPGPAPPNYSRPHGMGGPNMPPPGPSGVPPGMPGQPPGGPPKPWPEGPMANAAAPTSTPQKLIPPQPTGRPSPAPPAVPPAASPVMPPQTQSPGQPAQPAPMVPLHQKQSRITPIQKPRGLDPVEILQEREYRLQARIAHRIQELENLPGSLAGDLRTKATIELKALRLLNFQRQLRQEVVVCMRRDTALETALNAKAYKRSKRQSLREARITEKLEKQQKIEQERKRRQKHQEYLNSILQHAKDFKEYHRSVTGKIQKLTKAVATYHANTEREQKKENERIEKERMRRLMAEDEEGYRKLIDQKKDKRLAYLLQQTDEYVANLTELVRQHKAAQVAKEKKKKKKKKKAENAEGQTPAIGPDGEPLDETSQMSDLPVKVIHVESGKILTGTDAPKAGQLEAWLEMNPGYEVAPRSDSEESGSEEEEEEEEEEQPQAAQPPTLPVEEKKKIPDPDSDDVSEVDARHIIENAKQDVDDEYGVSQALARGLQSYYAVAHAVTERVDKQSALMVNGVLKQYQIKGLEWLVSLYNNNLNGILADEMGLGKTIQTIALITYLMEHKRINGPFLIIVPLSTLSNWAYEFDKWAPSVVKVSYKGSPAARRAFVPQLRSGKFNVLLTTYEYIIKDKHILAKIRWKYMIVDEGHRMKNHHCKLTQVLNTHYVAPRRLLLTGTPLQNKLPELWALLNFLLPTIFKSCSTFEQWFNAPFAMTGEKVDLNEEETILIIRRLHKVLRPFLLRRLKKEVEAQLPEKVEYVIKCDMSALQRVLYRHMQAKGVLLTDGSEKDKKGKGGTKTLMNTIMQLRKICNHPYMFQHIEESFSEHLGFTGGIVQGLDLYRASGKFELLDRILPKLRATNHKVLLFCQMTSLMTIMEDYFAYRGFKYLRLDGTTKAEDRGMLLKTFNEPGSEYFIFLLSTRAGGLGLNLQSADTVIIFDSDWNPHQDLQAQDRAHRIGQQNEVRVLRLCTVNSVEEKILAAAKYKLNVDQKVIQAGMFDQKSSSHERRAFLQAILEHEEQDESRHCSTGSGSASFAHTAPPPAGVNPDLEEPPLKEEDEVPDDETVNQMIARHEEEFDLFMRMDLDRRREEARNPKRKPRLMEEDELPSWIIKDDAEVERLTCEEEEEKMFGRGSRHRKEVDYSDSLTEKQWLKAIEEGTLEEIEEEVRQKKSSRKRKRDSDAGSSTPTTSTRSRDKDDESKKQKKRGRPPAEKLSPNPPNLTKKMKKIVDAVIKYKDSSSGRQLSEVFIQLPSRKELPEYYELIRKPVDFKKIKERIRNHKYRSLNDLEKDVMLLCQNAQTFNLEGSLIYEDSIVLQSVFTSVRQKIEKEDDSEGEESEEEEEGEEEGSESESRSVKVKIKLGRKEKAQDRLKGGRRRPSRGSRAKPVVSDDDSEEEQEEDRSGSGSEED
T2 sequence (P51531 whole entry): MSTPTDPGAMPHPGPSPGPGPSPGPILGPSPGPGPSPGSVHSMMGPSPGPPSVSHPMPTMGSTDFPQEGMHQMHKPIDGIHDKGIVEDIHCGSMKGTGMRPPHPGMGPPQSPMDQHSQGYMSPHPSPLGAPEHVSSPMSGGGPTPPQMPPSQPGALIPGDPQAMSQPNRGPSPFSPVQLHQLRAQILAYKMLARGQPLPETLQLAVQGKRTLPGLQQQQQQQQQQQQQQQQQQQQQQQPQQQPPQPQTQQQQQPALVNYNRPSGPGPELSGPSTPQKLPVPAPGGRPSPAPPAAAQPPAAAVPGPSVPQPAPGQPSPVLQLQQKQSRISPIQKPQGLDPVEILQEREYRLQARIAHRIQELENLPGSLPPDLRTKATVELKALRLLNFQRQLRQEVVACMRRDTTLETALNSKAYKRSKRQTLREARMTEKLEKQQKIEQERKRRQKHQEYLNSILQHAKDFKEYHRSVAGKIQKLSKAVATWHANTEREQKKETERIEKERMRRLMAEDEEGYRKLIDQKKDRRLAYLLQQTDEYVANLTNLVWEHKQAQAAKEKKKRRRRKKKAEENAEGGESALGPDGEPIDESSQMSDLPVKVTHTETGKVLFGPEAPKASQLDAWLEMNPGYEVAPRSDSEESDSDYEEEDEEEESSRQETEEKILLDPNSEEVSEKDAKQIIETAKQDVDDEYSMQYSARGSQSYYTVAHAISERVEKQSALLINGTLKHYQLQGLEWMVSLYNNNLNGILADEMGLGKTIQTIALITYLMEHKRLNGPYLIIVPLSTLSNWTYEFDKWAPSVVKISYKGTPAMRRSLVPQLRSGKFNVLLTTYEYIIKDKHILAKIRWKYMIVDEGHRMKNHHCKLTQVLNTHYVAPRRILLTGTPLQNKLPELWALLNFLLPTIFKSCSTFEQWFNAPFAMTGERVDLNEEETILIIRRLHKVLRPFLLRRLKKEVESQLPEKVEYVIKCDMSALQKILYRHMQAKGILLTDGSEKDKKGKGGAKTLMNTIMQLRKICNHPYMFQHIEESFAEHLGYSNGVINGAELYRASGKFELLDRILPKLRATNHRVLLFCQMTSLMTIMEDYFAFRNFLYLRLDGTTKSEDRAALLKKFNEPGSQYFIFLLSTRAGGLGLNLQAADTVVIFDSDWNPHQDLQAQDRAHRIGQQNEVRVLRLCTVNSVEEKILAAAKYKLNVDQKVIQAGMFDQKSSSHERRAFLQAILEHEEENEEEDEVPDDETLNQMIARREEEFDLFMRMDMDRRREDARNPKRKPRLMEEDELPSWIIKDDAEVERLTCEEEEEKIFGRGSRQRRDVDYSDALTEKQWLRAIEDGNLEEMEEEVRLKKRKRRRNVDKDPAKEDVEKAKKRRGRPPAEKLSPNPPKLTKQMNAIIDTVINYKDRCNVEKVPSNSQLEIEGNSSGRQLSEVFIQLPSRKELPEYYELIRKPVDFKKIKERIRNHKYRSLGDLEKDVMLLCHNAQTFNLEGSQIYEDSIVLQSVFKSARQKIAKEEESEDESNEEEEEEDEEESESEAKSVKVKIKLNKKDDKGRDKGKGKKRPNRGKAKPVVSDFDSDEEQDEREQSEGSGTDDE

Take `C[C@H](NC(=O)c1ccn(C2(C)COC2)c1)C(=O)Nc1nc(-c2cccc(-c3ccn(C)n3)c2)cs1` [Compound 589]: the pIC50 at BRG-1 was under 7.00; at BRM it was under 8.00.
Regarding `CN1CCOc2ccc(-c3csc(NC(=O)CNC(=O)c4ccn(C(C)(C)C#N)c4)n3)cc21` [Compound 590], the pIC50 on BRG-1 and on BRM was under 8.00 each time.
With `C[C@H](NC(=O)c1ccn(S(C)(=O)=O)c1)C(=O)Nc1nc(-c2cccc(-c3ccn(C)n3)c2)cs1` [Compound 591], the pIC50 at BRG-1 and on BRM was under 8.00 in each case.
For the compound `COC[C@H](NC(=O)c1ccn(S(C)(=O)=O)c1)C(=O)Nc1nc(-c2ccc(F)c(OC(F)(F)F)c2)cs1` [Compound 592], the pIC50 on BRG-1 and at BRM was under 8.00 each time.
For `COC[C@H](NC(=O)c1ccn(S(C)(=O)=O)c1)C(=O)Nc1nc(-c2cc(F)cc(OC(F)(F)F)c2)cs1` [Compound 593], the pIC50 at BRG-1 and on BRM was under 8.00 in each case.
For the compound `N#CC1(n2ccc(C(=O)NCC(=O)Nc3nc(-c4cccc(N5CCC5)n4)cs3)c2)COC1` [Compound 595], the pIC50 on BRG-1 and on BRM was under 8.00 each time.
As to `COC[C@H](NC(=O)c1ccn(S(C)(=O)=O)c1)C(=O)Nc1nc(-c2ccc3c(c2)OCO3)cs1` [Compound 596], the pIC50 at BRG-1 is under 8.00; at BRM, over 8.00.
The matching figures for `COC[C@H](NC(=O)c1ccn(S(C)(=O)=O)c1)C(=O)Nc1nc(-c2cccc([C@@H]3CC3(F)F)c2)cs1` [Compound 598]: under 8.00 and under 8.00.
The matching figures for `COC[C@H](NC(=O)c1ccn(S(C)(=O)=O)c1)C(=O)Nc1nc(-c2cccc([C@H]3CC3(F)F)c2)cs1` [Compound 599]: under 8.00 and under 8.00.
For `C[C@@H]1CN(c2cccc(-c3csc(NC(=O)[C@H](C)NC(=O)c4ccn(C5(C#N)COC5)c4)n3)n2)C[C@H](C)O1` [Compound 600], in that order: over 8.00 and over 8.00.
Consider `N#CC1(n2ccc(C(=O)NCC(=O)Nc3nc(-c4cccc(N5CCC5)c4)cs3)c2)COC1` [Compound 601], for which the values for the pIC50 on BRG-1 and at BRM were under 8.00 and over 8.00, respectively.
The matching figures for `C[C@@H]1CN(c2cccc(-c3csc(NC(=O)CNC(=O)c4ccn(C5(C#N)COC5)c4)n3)n2)C[C@H](C)O1` [Compound 602]: over 8.00 and over 8.00.
Take `COC[C@H](NC(=O)c1ccn(C(C)(C)C)c1)C(=O)Nc1nc(-c2ccc3ccn(C4COC4)c(=O)c3c2)cs1` [Compound 603]: the pIC50 on BRG-1 and on BRM was over 8.00 in each case.
Turning to `CCO[C@H](NC(=O)c1ccn(S(C)(=O)=O)c1)C(=O)Nc1nc(-c2cccc([C@H]3CC3(F)F)n2)cs1` [Compound 606], the pIC50 at BRG-1 is under 7.00; at BRM it was under 8.00.
The matching figures for `CS(=O)(=O)n1ccc(C(=O)NCC(=O)Nc2nc(-c3cc(Cl)c4c(c3)OCO4)cs2)c1` [Compound 607]: under 8.00 and under 8.00.
For `CS(=O)(=O)n1ccc(C(=O)NCC(=O)Nc2nc(-c3cccc([C@@H]4CC4(F)F)n3)cs2)c1` [Compound 608], in that order: under 7.00 and under 8.00.
For `CS(=O)(=O)n1ccc(C(=O)NCC(=O)Nc2nc(-c3cccc([C@H]4CC4(F)F)n3)cs2)c1` [Compound 609], in that order: under 8.00 and under 8.00.
On to `COC[C@H](NC(=O)c1ccn(S(C)(=O)=O)c1)C(=O)Nc1nc(-c2cc(F)cc(OC3CC3)c2)cs1` [Compound 610], for which the pIC50 on BRG-1 and on BRM was under 8.00 each time.
Turning to `COC[C@H](NC(=O)c1ccn(C(C)(C)C)c1)C(=O)Nc1nc(-c2cnc3ccn(C)c(=O)c3c2)cs1` [Compound 611], the pIC50 at BRG-1 and at BRM was under 8.00 each time.
On to `CS(=O)(=O)n1ccc(C(=O)NCC(=O)Nc2nc(-c3ccc(F)c(OC4CC4)c3F)cs2)c1` [Compound 612], for which the pIC50 at BRG-1 and on BRM was under 8.00 throughout.
`COC[C@H](NC(=O)c1ccn(S(C)(=O)=O)c1)C(=O)Nc1nc(-c2ccc(F)c(OC3CC3)c2F)cs1` [Compound 613]: the pIC50 on BRG-1 is under 7.00; at BRM it was under 8.00.
Consider `CS(=O)(=O)n1ccc(C(=O)NCC(=O)Nc2nc(-c3ccc(F)c(OC4CC4)n3)cs2)c1` [Compound 614], for which the pIC50 at BRG-1 and on BRM was under 8.00 each time.
Consider `COC[C@H](NC(=O)c1ccn(C(C)(C)C#N)c1)C(=O)Nc1nc(-c2cccc(-c3cnn(C)n3)c2)cs1` [Compound 615], for which the pIC50 at BRG-1 and at BRM was over 8.00 each time.
For the compound `CS(=O)(=O)n1ccc(C(=O)NCC(=O)Nc2nc(-c3cc(F)c4c(c3)OCO4)cs2)c1` [Compound 616], the pIC50 at BRG-1 and at BRM was over 8.00 throughout.
In the case of `COC[C@H](NC(=O)c1ccn(S(C)(=O)=O)c1)C(=O)Nc1nc(-c2cc(Cl)c3c(c2)OCO3)cs1` [Compound 617], the pIC50 is under 7.00 at BRG-1 and under 8.00 on BRM.
For `CC(C)(C)n1ccc(C(=O)NCC(=O)Nc2nc(-c3cccc(N4CCC(C(F)F)C4)n3)cs2)c1` (stereo not drawn) [Compound 618], in that order: under 8.00 and under 8.00.
For `CS(=O)(=O)n1ccc(C(=O)NCC(=O)Nc2nc(-c3ccc4c(c3)CCO4)cs2)c1` [Compound 619], in that order: under 8.00 and over 8.00.
`CC(C)(C)n1ccc(C(=O)NCC(=O)Nc2nc(-c3cccc(N4CCC5(COC5)C4)n3)cs2)c1` [Compound 620]: the pIC50 on BRG-1 and at BRM was under 8.00 in each case.
For the compound `C[C@@H]1CN(c2cccc(-c3csc(NC(=O)CNC(=O)c4ccn([C@@]5(C)CC5(F)F)c4)n3)n2)C[C@H](C)O1` [Compound 621], the pIC50 at BRG-1 and on BRM was under 7.00 throughout.
Regarding `C[C@@H]1CN(c2cccc(-c3csc(NC(=O)CNC(=O)c4ccn([C@]5(C)CC5(F)F)c4)n3)n2)C[C@H](C)O1` [Compound 622], the pIC50 at BRG-1 was under 8.00; on BRM it was over 8.00.
For `CN(C)[C@H]1CCN(c2cccc(-c3csc(NC(=O)CNC(=O)c4ccn(C(C)(C)C)c4)n3)n2)C1` [Compound 623], in that order: under 7.00 and under 7.00.
For `CC(C)(C)n1ccc(C(=O)NCC(=O)Nc2nc(-c3cccc(N4CCC5(CCOCC5)C4)n3)cs2)c1` [Compound 624], in that order: under 7.00 and under 7.00.
The matching figures for `CC1CN(c2cccc(-c3csc(NC(=O)CNC(=O)c4ccn(C(C)(C)C)c4)n3)n2)C1` [Compound 625]: under 7.00 and under 7.00.
For the compound `CC(C)(C)n1ccc(C(=O)NCC(=O)Nc2nc(-c3cccc(N4CCC5(CCOC5)CC4)n3)cs2)c1` [Compound 626], the pIC50 at BRG-1 and at BRM was under 7.00 in each case.
Take `CC(C)(C)n1ccc(C(=O)NCC(=O)Nc2nc(-c3cccc(N4CCN(c5cccnn5)CC4)n3)cs2)c1` [Compound 627]: the pIC50 on BRG-1 was under 7.00; on BRM, under 8.00.
For `CC(C)(C)n1ccc(C(=O)NCC(=O)Nc2nc(-c3cccc(N4CCC5(CC4)CC(F)C5)n3)cs2)c1` [Compound 628], in that order: under 7.00 and under 7.00.

For the origin of these results see patent US20230079819A1, “COMPOUNDS AND USES THEREOF” (Foghorn Therapeutics Inc., priority 2019, published 2023).
